Laboratory results published in ChEMBL document CHEMBL1128769, “Structure-activity relationships of tricyclic quinoxalinediones as potent antagonists for the glycine binding site of the NMDA receptor 2” (Bioorg Med Chem Lett, 1995).

Key:
[1] = molecular target: Glutamate receptor ionotropic, NMDA 1 (Rattus norvegicus) (UniProt P35439); experiment: Percent inhibition of [3H]- 5,7- dichloro -kynurenic acid binding to glycine binding site of NMDA receptor at 10 ng/mL
[2] = molecular target: Glutamate receptor ionotropic, NMDA 1 (Rattus norvegicus, UniProt P35439); experiment: Affinity for the glycine binding site of the NMDA receptor using [3H]- 5,7- dichloro -kynurenic acid as radio-ligand
[3] = molecular target: Glutamate receptor ionotropic, NMDA 1 (Rattus norvegicus) (UniProt P35439); experiment: Percent inhibition of binding affinity for the glycine binding site of the NMDA receptor using [3H]5,7- dichloro -kynurenic acid at a concentration of 10 ng/mL

Structure (SMILES) | inhibition [1] [%] | Ki [2] [nM] | inhibition [3] [%]
O=C(CC1CCc2cc(Br)cc3[nH]c(=O)c(=O)n1c23)Nc1ccc(C(F)(F)F)cc1 (stereo not given) | 1 | – | –
CC(=O)Nc1ccc(NC(=O)CC2CCc3cc(Br)cc4[nH]c(=O)c(=O)n2c34)cc1 (stereo not given) | 73 | – | –
C[C@H]1Cc2cc(Cl)cc3[nH]c(=O)c(=O)n(c23)C1CC(=O)Nc1ccccc1 (stereo not given in full) | – | 3.1 | –
O=C(CC1CCc2cc(Br)cc3[nH]c(=O)c(=O)n1c23)NC1CCCCC1 (stereo not given) | 23.8 | – | –
O=C(CC1CCc2cc(Cl)cc3[nH]c(=O)c(=O)n1c23)Nc1ccccc1 (stereo not given) | 79.3 | 6.6 | –
O=C(O)CC1CCc2cccc3[nH]c(=O)c(=O)n1c23 (stereo not given) | – | – | 30.3
O=C(CC1CCc2cc(Br)cc3[nH]c(=O)c(=O)n1c23)Nc1ccc([N+](=O)[O-])cc1 (stereo not given) | – | – | 21.5
NC(=O)CC1CCc2cc(Br)cc3[nH]c(=O)c(=O)n1c23 (stereo not given) | 28.9 | – | –
N#Cc1ccc(NC(=O)CC2CCc3cc(Br)cc4[nH]c(=O)c(=O)n2c34)cc1 (stereo not given) | – | – | 3.8
COc1ccc(NC(=O)CC2CCc3cc(Br)cc4[nH]c(=O)c(=O)n2c34)cc1 (stereo not given) | 67.5 | – | –
C[C@H]1Cc2cc(Cl)cc3[nH]c(=O)c(=O)n(c23)C1CC(=O)O (stereo not given in full) | – | 4.4 | –

More lines, now with the values ahead:

inhibition [1] [%] | Ki [2] [nM] | inhibition [3] [%] | Structure (SMILES)
92.9 | 2.6 | – | O=C(CC1CCc2cc(Br)cc3[nH]c(=O)c(=O)n1c23)Nc1ccccc1 (stereo not given)
76.2 | 46.6 | – | O=C(O)CC1CCc2cc(I)cc3[nH]c(=O)c(=O)n1c23 (stereo not given)
90.3 | 5.1 | – | O=C(O)CC1CCc2cc(Cl)cc3[nH]c(=O)c(=O)n1c23 (stereo not given)
83.3 | – | – | Cc1ccc(NC(=O)CC2CCc3cc(Br)cc4[nH]c(=O)c(=O)n2c34)cc1 (stereo not given)
68.7 | 9.9 | – | O=C(O)CC1CCc2cc(Br)cc3[nH]c(=O)c(=O)n1c23 (stereo not given)
76.4 | – | – | Nc1ccc(NC(=O)CC2CCc3cc(Br)cc4[nH]c(=O)c(=O)n2c34)cc1 (stereo not given)
– | – | 52.7 | O=C(CC1CCc2cccc3[nH]c(=O)c(=O)n1c23)Nc1ccccc1 (stereo not given)
46.7 | 134 | – | O=C(CC1CCc2cc(I)cc3[nH]c(=O)c(=O)n1c23)Nc1ccccc1 (stereo not given)
